Patent US20240382483A1, “HETEROCYCLIC EGFR INHIBITORS FOR USE IN THE TREATMENT OF CANCER” (Blueprint Medicines Corporation, priority 2021, published 2024)

How the values were obtained:
[1] = system: EGFR mutant NSCLC (EGFR M+); conditions: NSCLC patients; cited from earlier work
[2] = target: T1, intracellular phosphorylation of EGFR in NCI-H1975 cell line that harbors the EGFR L858R T790M mutations (Homo sapiens, UniProt P00533, L858R/T790M); experiment: NCI-H1975 pEGFR AlphaLISA assay; type: cell-based; conditions: NCI-H1975 cells (EGFR L858R T790M), p-EGFR (Tyr1068), 4-5 hours incubation; read-out: Ext pEGFR H1975 GMean IC50 (nM) Protocol: @Pharmaron AlphaLISA (Num)
T1 construct: NCI-H1975 cell line that harbors the EGFR L858R T790M mutations (ATCC, CRL-5908); host or cells: NCI-H1975
T1 sequence (P00533 25-1210 T790M/L858R): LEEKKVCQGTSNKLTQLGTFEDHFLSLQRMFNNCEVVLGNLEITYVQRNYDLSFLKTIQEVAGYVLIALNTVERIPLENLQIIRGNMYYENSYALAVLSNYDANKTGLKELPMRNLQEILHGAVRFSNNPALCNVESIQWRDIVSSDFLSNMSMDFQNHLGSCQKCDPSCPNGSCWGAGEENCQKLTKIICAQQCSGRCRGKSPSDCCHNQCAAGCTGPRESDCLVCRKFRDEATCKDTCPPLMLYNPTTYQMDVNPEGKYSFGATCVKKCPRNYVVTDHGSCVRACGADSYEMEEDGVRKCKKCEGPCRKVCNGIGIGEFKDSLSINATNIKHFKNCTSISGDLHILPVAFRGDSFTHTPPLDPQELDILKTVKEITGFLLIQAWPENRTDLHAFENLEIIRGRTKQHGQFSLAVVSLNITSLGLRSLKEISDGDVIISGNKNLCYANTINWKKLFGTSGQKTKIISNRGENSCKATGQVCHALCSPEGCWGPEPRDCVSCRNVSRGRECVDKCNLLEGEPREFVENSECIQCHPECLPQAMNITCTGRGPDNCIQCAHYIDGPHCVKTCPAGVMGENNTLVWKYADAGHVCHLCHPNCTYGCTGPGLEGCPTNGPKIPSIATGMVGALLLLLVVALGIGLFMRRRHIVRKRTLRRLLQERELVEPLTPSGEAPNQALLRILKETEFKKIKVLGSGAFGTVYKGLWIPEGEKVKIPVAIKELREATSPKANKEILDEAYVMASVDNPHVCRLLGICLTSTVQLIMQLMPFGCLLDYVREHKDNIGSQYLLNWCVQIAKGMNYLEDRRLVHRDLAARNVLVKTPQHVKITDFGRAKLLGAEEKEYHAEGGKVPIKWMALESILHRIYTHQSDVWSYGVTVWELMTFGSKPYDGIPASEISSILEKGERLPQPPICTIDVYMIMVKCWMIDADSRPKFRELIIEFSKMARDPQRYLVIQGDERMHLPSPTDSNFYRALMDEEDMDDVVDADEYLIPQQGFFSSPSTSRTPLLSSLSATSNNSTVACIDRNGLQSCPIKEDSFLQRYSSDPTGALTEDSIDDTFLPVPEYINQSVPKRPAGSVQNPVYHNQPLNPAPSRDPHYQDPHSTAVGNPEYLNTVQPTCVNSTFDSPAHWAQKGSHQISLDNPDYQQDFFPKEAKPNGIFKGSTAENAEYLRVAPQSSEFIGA
Protocol: On the next day, the test compounds and DMSO control were added into H1975 cell plate followed by incubation at 37C/5% CO2 for 4-5 hours. […] Then 5 μL of a donor bead mix was added to each well followed by overnight incubation at room temperature in dark. On the next day, the plate was read at a compatible plate reader to obtain pEGFR signal. Percent of pEGFR inhibition was plotted against log concentration of compounds to generate IC50 values.

[3] = target: T2, EGFR (L858R T790M C797S) (Homo sapiens, UniProt P00533, C797S/L858R/T790M); experiment: Biochemical EGFR inhibition assay (Caliper mobility shift), EGFR LRTMCS; conditions: LRTMCS (PH) IC50 (nM) @ 1 mM ATP (Num), EGFR LRTMCS mutant
T2 construct: purchased SignalChem E10-122VG
T2 sequence (P00533 25-1210 T790M/C797S/L858R): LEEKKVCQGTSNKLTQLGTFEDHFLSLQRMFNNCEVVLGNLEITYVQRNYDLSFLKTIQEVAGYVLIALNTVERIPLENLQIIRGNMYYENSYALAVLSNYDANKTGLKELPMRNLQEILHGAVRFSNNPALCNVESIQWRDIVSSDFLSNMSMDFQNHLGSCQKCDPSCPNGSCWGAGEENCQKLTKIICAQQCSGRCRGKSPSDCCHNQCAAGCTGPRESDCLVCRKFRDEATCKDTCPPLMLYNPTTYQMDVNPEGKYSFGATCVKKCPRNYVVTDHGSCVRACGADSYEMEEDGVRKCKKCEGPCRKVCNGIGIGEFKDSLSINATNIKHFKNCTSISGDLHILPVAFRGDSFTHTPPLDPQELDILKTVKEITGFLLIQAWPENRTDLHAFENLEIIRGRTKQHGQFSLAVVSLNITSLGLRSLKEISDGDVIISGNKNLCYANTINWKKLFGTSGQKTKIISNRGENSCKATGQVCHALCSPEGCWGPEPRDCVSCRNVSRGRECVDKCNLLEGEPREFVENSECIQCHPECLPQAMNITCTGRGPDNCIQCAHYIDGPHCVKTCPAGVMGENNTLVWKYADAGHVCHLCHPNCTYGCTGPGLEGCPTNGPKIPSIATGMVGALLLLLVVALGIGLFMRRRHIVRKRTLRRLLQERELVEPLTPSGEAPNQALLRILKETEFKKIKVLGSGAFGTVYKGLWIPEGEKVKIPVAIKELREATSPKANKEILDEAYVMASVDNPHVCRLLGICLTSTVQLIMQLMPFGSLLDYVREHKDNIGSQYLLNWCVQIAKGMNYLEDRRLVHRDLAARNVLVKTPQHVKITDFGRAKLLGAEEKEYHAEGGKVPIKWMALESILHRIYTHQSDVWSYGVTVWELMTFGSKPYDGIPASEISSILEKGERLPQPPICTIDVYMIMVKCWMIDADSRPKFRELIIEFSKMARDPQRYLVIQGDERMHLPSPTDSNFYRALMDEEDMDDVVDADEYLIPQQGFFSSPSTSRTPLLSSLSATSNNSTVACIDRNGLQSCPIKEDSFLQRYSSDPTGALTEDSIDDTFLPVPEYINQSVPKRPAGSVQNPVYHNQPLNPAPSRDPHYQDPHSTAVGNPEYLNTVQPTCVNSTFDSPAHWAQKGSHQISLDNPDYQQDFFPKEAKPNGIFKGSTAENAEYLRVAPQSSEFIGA
Summary of the method: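 Apparent IC50s were derived by plotting percent activity against the log of compound concentration. Activity was measured as phosphopeptide electrophoretically separated from substrate, after reactions at room temperature reached 10% to 20% phosphorylation and were halted with 35 mM EDTA.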

SMILES	time of treatment until resistance [1]	IC50 [2] [nM]	IC50 [3] [nM]
C=CC(=O)Nc1cc(Nc2nccc(-c3cn(C)c4ccccc34)n2)c(OC)cc1N(C)CCN(C)C [osimertinib]	approximately 10 months		
CC(C)c1cnc(N2C[C@H](O)[C@H]2C)c2cnc(Nc3ccnc(N4C[C@H](F)[C@H](O)[C@@](C)(F)C4)n3)cc12 (single isomer, unassigned) [Example 135, (3S,4S,5S)-3,5-difluoro-1-(4-((8-((2R,3S)-3-hydroxy-2-methylazetidin-1-yl)-5-isopropyl-2,7-naphthyridin-3-yl)amino)pyrimidin-2-yl)-3-methylpiperidin-4-ol or (3R,4R,5R)-3,5-difluoro-1-(4-((8-((2R,3S)-3-hydroxy-2-methylazetidin-1-yl)-5-isopropyl-2,7-naphthyridin-3-yl)amino)pyrimidin-2-yl)-3-methylpiperidin-4-ol]		> 50	20 to 30
CO[C@@H]1CCN(c2nccc(Nc3cc4c(C(C)C)cnc(N5C[C@H](OCCO)[C@H]5C)c4cn3)n2)C[C@@H]1F [Example 148, 2-(((2R,3S)-1-(6-((2-((3S,4R)-3-fluoro-4-methoxypiperidin-1-yl)pyrimidin-4-yl)amino)-4-isopropyl-2,7-naphthyridin-1-yl)-2-methylazetidin-3-yl)oxy)ethan-1-ol]		< 10	< 15
CC(C)c1cnc(N2CC3(CCS3(=O)=O)C2)c2cnc(Nc3ccnc(N4C[C@@H](F)[C@@H](O)C(C)(C)C4)n3)cc12 (single isomer, unassigned) [Example 132, 6-(6-((2-((4S,5R)-5-fluoro-4-hydroxy-3,3-dimethylpiperidin-1-yl)pyrimidin-4-yl)amino)-4-isopropyl-2,7-naphthyridin-1-yl)-1-thia-6-azaspiro[3.3]heptane 1,1-dioxide or 6-(6-((2-((4R,5S)-5-fluoro-4-hydroxy-3,3-dimethylpiperidin-1-yl)pyrimidin-4-yl)amino)-4-isopropyl-2,7-naphthyridin-1-yl)-1-thia-6-azaspiro[3.3]heptane 1,1-dioxide]		10 to 20	< 15
CO[C@H]1CN(c2ncc([C@@H](C)CO)c3cc(Nc4ccnc(N5CC[C@@H](O)[C@@](C)(F)C5)n4)ncc23)[C@@H]1C (single isomer, unassigned) [Example 211, (3S,4R)-3-fluoro-1-(4-((5-((R)-1-hydroxypropan-2-yl)-8-((2R,3S)-3-methoxy-2-methylazetidin-1-yl)-2,7-naphthyridin-3-yl)amino)pyrimidin-2-yl)-3-methylpiperidin-4-ol or (3S,4R)-3-fluoro-1-(4-((5-((S)-1-hydroxypropan-2-yl)-8-((2R,3S)-3-methoxy-2-methylazetidin-1-yl)-2,7-naphthyridin-3-yl)amino)pyrimidin-2-yl)-3-methylpiperidin-4-ol]		> 50	30 to 100
CC(C)c1cnc(N2CC3(C2)CC3(F)F)c2cnc(Nc3ccnc(N4CC[C@@H](O)[C@@](C)(F)C4)n3)cc12 [Example 59, (3S,4R)-1-(4-((8-(1,1-difluoro-5-azaspiro[2.3]hexan-5-yl)-5-isopropyl-2,7-naphthyridin-3-yl)amino)pyrimidin-2-yl)-3-fluoro-3-methylpiperidin-4-ol]		10 to 20	< 15
C[C@@H](CO)c1cnc(N2CC[C@@H]2C)c2cnc(Nc3ccnc(N4CC[C@@H](O)[C@@](C)(F)C4)n3)cc12 (single isomer, unassigned) [Example 189]		10 to 20	< 15
Cc1nc(-c2cnc(C(C)C)c3cc(Nc4ccnc(N5CC[C@@H](O)[C@@](C)(F)C5)n4)ncc23)no1 [Example 8, (3S,4R)-3-fluoro-1-(4-((5-isopropyl-8-(5-methyl-1,2,4-oxadiazol-3-yl)-2,6-naphthyridin-3-yl)amino)pyrimidin-2-yl)-3-methylpiperidin-4-ol]		> 50	20 to 30
CO[C@@H]1CCN(c2nccc(Nc3cc4c(C(C)C)cnc(N5CC(F)C5)c4cn3)n2)C[C@@H]1O (single isomer, unassigned) [Example 118, (3S,4R)-1-(4-((8-(3-fluoroazetidin-1-yl)-5-isopropyl-2,7-naphthyridin-3-yl)amino)pyrimidin-2-yl)-4-methoxypiperidin-3-ol or (3R,4S)-1-(4-((8-(3-fluoroazetidin-1-yl)-5-isopropyl-2,7-naphthyridin-3-yl)amino)pyrimidin-2-yl)-4-methoxypiperidin-3-ol]		> 50	20 to 30
CC(C)c1cnc(-c2nnc(C(C)(C)O)o2)c2cnc(Nc3ccnc(N4CC[C@@H](O)[C@@](C)(F)C4)n3)cc12 [Example 27, (3S,4R)-3-fluoro-1-(4-((8-(5-(2-hydroxypropan-2-yl)-1,3,4-oxadiazol-2-yl)-5-isopropyl-2,7-naphthyridin-3-yl)amino)pyrimidin-2-yl)-3-methylpiperidin-4-ol]		> 50	< 15
CC(=O)N1CC(c2ccc(C(C)C)c3cc(Nc4ccnc(N5CC[C@@H](O)[C@@](C)(F)C5)n4)ncc23)C1 [Example 4, 1-(3-(3-((2-((3S,4R)-3-fluoro-4-hydroxy-3-methylpiperidin-1-yl)pyrimidin-4-yl)amino)-5-isopropylisoquinolin-8-yl)azetidin-1-yl)ethan-1-one]		20 to 30	< 15
COC[C@@H]1CCN1c1ncc(C(C)C)c2cc(Nc3ccnc(N4CC[C@@H](O)[C@@](C)(F)C4)n3)ncc12 [Example 29, (3S,4R)-3-fluoro-1-(4-((5-isopropyl-8-((S)-2-(methoxymethyl)azetidin-1-yl)-2,7-naphthyridin-3-yl)amino)pyrimidin-2-yl)-3-methylpiperidin-4-ol]		< 10	< 15
CC(C)c1cnc(N2C[C@H](O)[C@H]2C)c2cnc(Nc3ccnc(N4CC[C@@](C)(O)[C@@H](F)C4)n3)cc12 (single isomer, unassigned) [Example 173, (3S,4R)-3-fluoro-1-(4-((8-((2R,3S)-3-hydroxy-2-methylazetidin-1-yl)-5-isopropyl-2,7-naphthyridin-3-yl)amino)pyrimidin-2-yl)-4-methylpiperidin-4-ol or (3R,4S)-3-fluoro-1-(4-((8-((2R,3S)-3-hydroxy-2-methylazetidin-1-yl)-5-isopropyl-2,7-naphthyridin-3-yl)amino)pyrimidin-2-yl)-4-methylpiperidin-4-ol]		30 to 50	< 15
CC(C)c1cnc(N2CC(C#N)(CO)C2)c2cnc(Nc3ccnc(N4CC[C@@H](O)[C@@](C)(F)C4)n3)cc12 [Example 73, 1-(6-((2-((3S,4R)-3-fluoro-4-hydroxy-3-methylpiperidin-1-yl)pyrimidin-4-yl)amino)-4-isopropyl-2,7-naphthyridin-1-yl)-3-(hydroxymethyl)azetidine-3-carbonitrile]		> 50	30 to 100
CC(C)c1cnc(N2CC[C@H]2C)c2cnc(Nc3ccnc(N4CC[C@H](OCCN(C)C)[C@H](F)C4)n3)cc12 [Example 202, N-(2-((3R,4S)-4-(2-(dimethylamino)ethoxy)-3-fluoropiperidin-1-yl)pyrimidin-4-yl)-5-isopropyl-8-((R)-2-methylazetidin-1-yl)-2,7-naphthyridin-3-amine]		30 to 50	30 to 100
